Test results from US20260176320A1, “MODULATORS OF G-PROTEIN COUPLED RECEPTORS” (priority 2018, published 2026).
Like-named read-outs stand apart in the source and are kept apart here. Square brackets hold non-standard residues; d marks the D form. Peptide text beside a SMILES is read from it. * marks the point of attachment. X1 = O=C(CSCC(=O)*)NCCN1C(=O)c2ccccc2C1=O; Aib = CC(C)(N)C(=O)O

Columns and labels:
Assay type in all cases: cell-based
GLP-1R [1] = molecular target: T1, GLP-1R (Homo sapiens, UniProt P43220); assay: PathHunter β-arrestin assay
How it was run: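 Agonist concentration–response (22 points, 2-fold steps, duplicates) was run on cells plated the previous day in BSA-supplemented (0.2%) medium. Stimulation lasted 90 min at 37 °C, followed by a 3 h dark incubation with detection reagent at room temperature and a luminescence read.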

GIP-R = molecular target: T2, GIP-R (Homo sapiens, UniProt P48546); assay: HitHunter cAMP assay (GIP-R); details: cAMP; for Emax: read-out: (Emax) GIP-R
T2 sequence (P48546 22-466): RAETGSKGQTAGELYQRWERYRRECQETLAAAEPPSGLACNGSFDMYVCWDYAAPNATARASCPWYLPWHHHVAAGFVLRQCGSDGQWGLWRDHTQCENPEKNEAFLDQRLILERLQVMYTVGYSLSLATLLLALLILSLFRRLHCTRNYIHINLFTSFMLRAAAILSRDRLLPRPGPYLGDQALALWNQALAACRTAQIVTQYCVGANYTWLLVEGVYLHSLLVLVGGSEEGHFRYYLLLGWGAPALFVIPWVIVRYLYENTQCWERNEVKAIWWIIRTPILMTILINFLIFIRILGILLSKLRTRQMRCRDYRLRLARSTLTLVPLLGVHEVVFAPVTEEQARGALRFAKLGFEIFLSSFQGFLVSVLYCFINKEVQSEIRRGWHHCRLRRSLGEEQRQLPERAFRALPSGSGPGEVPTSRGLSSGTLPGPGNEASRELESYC
How it was run: (§1)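 Cells were resuspended in HBSS plus HEPES, IBMX (625 μM) and BSA, then dispensed with antibody at 10,000 per well. Agonists followed as 22-point twofold series, 30 min at room temperature. Antibody reagent and detection steps ran 1 h and overnight in the dark before luminescence.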

GLP-1R [2] = molecular target: T1, GLP-1R; assay: HitHunter cAMP assay (GLP-1R); details: cAMP; for Emax: read-out: (Emax) GLP-1R
How it was run: as §1

[3] = read-out: EC50 GIP-R/nM, Table 3
[4] = read-out: EC50 GIP-R/nM, Table 3A

T1 sequence (P43220 24-463): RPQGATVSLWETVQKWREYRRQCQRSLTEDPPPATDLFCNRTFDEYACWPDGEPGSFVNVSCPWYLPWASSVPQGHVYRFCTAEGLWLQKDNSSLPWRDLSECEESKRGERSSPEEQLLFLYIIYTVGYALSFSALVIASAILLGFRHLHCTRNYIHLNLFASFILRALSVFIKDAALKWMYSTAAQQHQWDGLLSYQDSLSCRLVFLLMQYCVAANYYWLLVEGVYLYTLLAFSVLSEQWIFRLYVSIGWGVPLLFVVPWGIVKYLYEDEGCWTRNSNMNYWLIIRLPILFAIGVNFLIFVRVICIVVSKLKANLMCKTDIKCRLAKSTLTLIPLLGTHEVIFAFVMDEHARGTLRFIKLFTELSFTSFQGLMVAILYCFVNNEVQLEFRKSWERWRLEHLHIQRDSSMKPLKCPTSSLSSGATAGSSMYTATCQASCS

SMILES	EC50 (GLP-1R [1])	Emax (GIP-R; Table 3)	Emax (GIP-R; Table 3A)	EC50 (GIP-R; [3])	EC50 (GIP-R; [4])	EC50 (GLP-1R [2]; EC50 GLP-1R/nM, Table 3)	EC50 (GLP-1R [2]; EC50 GLP-1R/nM, Table 3A)	Emax (GLP-1R [2]; Table 3)	Emax (GLP-1R [2]; Table 3A)	EC50 (GIP-R; EC50 GIP-R/nM, Table 3)	EC50 (GIP-R; EC50 GIP-R/nM, Table 3A)	EC50 (GLP-1R [1]; PathHunter β-arrestin assay, read-out: β-arrestin activity EC50)	EC50 (GIP-R; Table 3, read-out: EC50 GIP-R/nM)	EC50 (GIP-R; Table 3A, read-out: EC50 GIP-R/nM)	EC50 (GLP-1R [2]; Table 3, read-out: EC50 GLP-1R/nM)	EC50 (GLP-1R [2]; Table 3A, read-out: EC50 GLP-1R/nM)
CC[C@H](C)[C@H](NC(=O)[C@H](CO)NC(=O)[C@H](Cc1ccc(O)cc1)NC(=O)[C@H](CC(=O)O)NC(=O)[C@H](CO)NC(=O)[C@@H](NC(=O)[C@H](Cc1ccccc1)NC(=O)[C@@H](NC(=O)CNC(=O)[C@H](CCC(=O)O)NC(=O)CSCC(=O)NCCN1C(=O)c2ccccc2C1=O)[C@@H](C)O)[C@@H](C)O)C(=O)N[C@@H](Cc1ccc(O)cc1)C(=O)N[C@@H](CC(C)C)C(=O)N[C@@H](CC(=O)O)C(=O)N[C@@H](CCCCN)C(=O)N[C@@H](CCC(N)=O)C(=O)N[C@@H](C)C(=O)N[C@@H](C)C(=O)NC(C)(C)C(=O)N[C@@H](CC(C)C)C(=O)N[C@@H](Cc1ccccc1)C(=O)N[C@H](C(=O)N[C@@H](CC(N)=O)C(=O)N[C@@H](Cc1c[nH]c2ccccc12)C(=O)N[C@@H](CC(C)C)C(=O)N[C@@H](CC(C)C)C(=O)N[C@@H](C)C(=O)NCC(=O)NCC(=O)N1CCC[C@H]1C(=O)N[C@@H](CO)C(=O)N[C@@H](CO)C(=O)NCC(=O)N[C@@H](C)C(=O)N1CCC[C@H]1C(=O)N1CCC[C@H]1C(=O)N1CCC[C@H]1C(=O)N[C@@H](CO)C(=O)N[C@@H](CCCCN)C(N)=O)C(C)C [Compound 145] (X1-EGTFTSDYSIYLDKQAA[Aib]LFVNWLLAGGPSSGAPPPSK-NH2)	> 1000 nM	125%	125%	< 1 nM	< 1 nM	1 to 10 nM	1 to 10 nM	100 to 104%	100 to 104%	–	–	–	–	–	–	–
CC[C@H](C)[C@H](NC(=O)[C@H](CO)NC(=O)[C@H](Cc1ccc(O)cc1)NC(=O)[C@H](CC(=O)O)NC(=O)[C@H](CO)NC(=O)[C@@H](NC(=O)[C@H](Cc1ccccc1)NC(=O)[C@@H](NC(=O)CNC(=O)[C@H](CCC(=O)O)NC(=O)CSCC(=O)NCCCCN1C(=O)CSC1=O)[C@@H](C)O)[C@@H](C)O)C(=O)N[C@@H](Cc1ccc(O)cc1)C(=O)N[C@@H](CC(C)C)C(=O)N[C@@H](CC(=O)O)C(=O)N[C@@H](CCCCN)C(=O)N[C@@H](CCC(N)=O)C(=O)N[C@@H](C)C(=O)N[C@@H](C)C(=O)NC(C)(C)C(=O)N[C@@H](CCC(=O)O)C(=O)N[C@@H](Cc1ccccc1)C(=O)N[C@H](C(=O)N[C@@H](CC(N)=O)C(=O)N[C@@H](Cc1c[nH]c2ccccc12)C(=O)N[C@@H](CC(C)C)C(=O)N[C@@H](CC(C)C)C(=O)N[C@@H](C)C(=O)NCC(=O)NCC(=O)N1CCC[C@H]1C(=O)N[C@@H](CO)C(=O)N[C@@H](CO)C(=O)NCC(=O)N[C@@H](C)C(=O)N1CCC[C@H]1C(=O)N1CCC[C@H]1C(=O)N1CCC[C@H]1C(=O)N[C@@H](CO)C(=O)N[C@@H](CCCCN)C(N)=O)C(C)C [Compound 184]	> 1000 nM	43%	43%	–	–	1 to 10 nM	1 to 10 nM	99%	99%	10 to 100 nM	10 to 100 nM	–	–	–	–	–
CCCCCCCCCCCCCCCC(=O)N[C@@H](CCC(=O)NCCCC[C@H](NC(=O)[C@H](CO)NC(=O)[C@@H]1CCCN1C(=O)[C@@H]1CCCN1C(=O)[C@@H]1CCCN1C(=O)[C@H](C)NC(=O)CNC(=O)[C@H](CO)NC(=O)[C@H](CO)NC(=O)[C@@H]1CCCN1C(=O)CNC(=O)CNC(=O)[C@H](C)NC(=O)[C@H](CC(C)C)NC(=O)[C@H](CC(C)C)NC(=O)[C@H](Cc1c[nH]c2ccccc12)NC(=O)[C@H](CC(N)=O)NC(=O)[C@@H](NC(=O)[C@H](Cc1ccccc1)NC(=O)[C@H](CCC(=O)O)NC(=O)C(C)(C)NC(=O)[C@H](C)NC(=O)[C@H](C)NC(=O)[C@H](CCC(N)=O)NC(=O)[C@H](CCCCN)NC(=O)[C@H](CC(=O)O)NC(=O)[C@H](CC(C)C)NC(=O)[C@H](Cc1ccc(O)cc1)NC(=O)[C@@H](NC(=O)[C@H](CO)NC(=O)[C@H](Cc1ccc(O)cc1)NC(=O)[C@H](CC(=O)O)NC(=O)[C@H](CO)NC(=O)[C@@H](NC(=O)[C@H](Cc1ccccc1)NC(=O)[C@@H](NC(=O)CNC(=O)[C@H](CCC(=O)O)NC(=O)CSCC(=O)NCCN1C(=O)CC[C@H]1CO)[C@@H](C)O)[C@@H](C)O)[C@@H](C)CC)C(C)C)C(N)=O)C(=O)O [Compound 44]	> 1000 nM	54 to 67%	54 to 67%	–	–	0.1 to 1 nM	0.1 to 1 nM	97 to 99%	97 to 99%	1 to 10 nM	1 to 10 nM	–	–	–	–	–
CC[C@H](C)[C@H](NC(=O)[C@H](CO)NC(=O)[C@H](Cc1ccc(O)cc1)NC(=O)[C@H](CC(=O)O)NC(=O)[C@H](CO)NC(=O)[C@@H](NC(=O)[C@H](Cc1ccccc1)NC(=O)[C@@H](NC(=O)CNC(=O)[C@H](CCC(=O)O)NC(=O)C1(C(=O)NCCN2C(=O)CSC2=O)CCCCC1)[C@@H](C)O)[C@@H](C)O)C(=O)N[C@@H](Cc1ccc(O)cc1)C(=O)N[C@@H](CC(C)C)C(=O)N[C@@H](CC(=O)O)C(=O)N[C@@H](CCCCN)C(=O)N[C@@H](CCC(N)=O)C(=O)N[C@@H](C)C(=O)N[C@@H](C)C(=O)NC(C)(C)C(=O)N[C@@H](CCC(=O)O)C(=O)N[C@@H](Cc1ccccc1)C(=O)N[C@H](C(=O)N[C@@H](CC(N)=O)C(=O)N[C@@H](Cc1c[nH]c2ccccc12)C(=O)N[C@@H](CC(C)C)C(=O)N[C@@H](CC(C)C)C(=O)N[C@@H](C)C(=O)NCC(=O)NCC(=O)N1CCC[C@H]1C(=O)N[C@@H](CO)C(=O)N[C@@H](CO)C(=O)NCC(=O)N[C@@H](C)C(=O)N1CCC[C@H]1C(=O)N1CCC[C@H]1C(=O)N1CCC[C@H]1C(=O)N[C@@H](CO)C(=O)N[C@@H](CCCCN)C(N)=O)C(C)C [Compound 119]	–	41%	41%	–	–	–	–	97%	97%	–	–	< 10 nM	1 to 10 nM	10 to 100 nM	< 0.1 nM	< 0.1 nM
CC[C@H](C)[C@H](NC(=O)[C@H](CO)NC(=O)[C@H](Cc1ccc(O)cc1)NC(=O)[C@H](CC(=O)O)NC(=O)[C@H](CO)NC(=O)[C@@H](NC(=O)[C@H](Cc1ccccc1)NC(=O)[C@@H](NC(=O)CNC(=O)[C@H](CCC(=O)O)NC(=O)CC(=O)NCCCN1C(=O)c2ccc(C)cc2C1=O)[C@@H](C)O)[C@@H](C)O)C(=O)N[C@@H](Cc1ccc(O)cc1)C(=O)N[C@@H](CC(C)C)C(=O)N[C@@H](CC(=O)O)C(=O)N[C@@H](CCCCN)C(=O)N[C@@H](CCC(N)=O)C(=O)N[C@@H](C)C(=O)N[C@@H](C)C(=O)NC(C)(C)C(=O)N[C@@H](CCC(=O)O)C(=O)N[C@@H](Cc1ccccc1)C(=O)N[C@H](C(=O)N[C@@H](CC(N)=O)C(=O)N[C@@H](Cc1c[nH]c2ccccc12)C(=O)N[C@@H](CC(C)C)C(=O)N[C@@H](CC(C)C)C(=O)N[C@@H](C)C(=O)NCC(=O)NCC(=O)N1CCC[C@H]1C(=O)N[C@@H](CO)C(=O)N[C@@H](CO)C(=O)NCC(=O)N[C@@H](C)C(=O)N1CCC[C@H]1C(=O)N1CCC[C@H]1C(=O)N1CCC[C@H]1C(=O)N[C@@H](CO)C(=O)N[C@@H](CCCCN)C(N)=O)C(C)C [Compound 128]	> 1000 nM	68%	68%	1 to 100 nM	1 to 100 nM	1 to 10 nM	1 to 10 nM	99%	99%	–	–	–	–	–	–	–
CC[C@H](C)[C@H](NC(=O)[C@H](CO)NC(=O)[C@H](CC(C)C)NC(=O)[C@H](CC(=O)O)NC(=O)[C@H](CO)NC(=O)[C@@H](NC(=O)[C@H](Cc1ccccc1)NC(=O)[C@@H](NC(=O)CNC(=O)[C@H](CCC(=O)O)NC(=O)CSCC(=O)NCCN1C(=O)c2ccccc2C1=O)[C@@H](C)O)[C@@H](C)O)C(=O)N[C@@H](Cc1ccc(O)cc1)C(=O)N[C@@H](CC(C)C)C(=O)N[C@@H](CC(=O)O)C(=O)N[C@@H](CCCCN)C(=O)N[C@@H](CCC(N)=O)C(=O)N[C@@H](C)C(=O)N[C@@H](C)C(=O)NC(C)(C)C(=O)N[C@@H](CCC(=O)O)C(=O)N[C@@H](Cc1ccccc1)C(=O)N[C@H](C(=O)N[C@@H](CC(N)=O)C(=O)N[C@@H](Cc1c[nH]c2ccccc12)C(=O)N[C@@H](CC(C)C)C(=O)N[C@@H](CC(C)C)C(=O)N[C@@H](C)C(=O)NCC(=O)NCC(=O)N1CCC[C@H]1C(=O)N[C@@H](CO)C(=O)N[C@@H](CO)C(=O)NCC(=O)N[C@@H](C)C(=O)N1CCC[C@H]1C(=O)N1CCC[C@H]1C(=O)N1CCC[C@H]1C(=O)N[C@@H](CO)C(=O)N[C@@H](CCCCN)C(N)=O)C(C)C [Compound 151] (X1-EGTFTSDLSIYLDKQAA[Aib]EFVNWLLAGGPSSGAPPPSK-NH2)	> 1000 nM	117 to 119%	117 to 119%	–	–	1 to 10 nM	1 to 10 nM	103 to 107%	103 to 107%	0.1 to 1 nM	0.1 to 1 nM	–	–	–	–	–
